# Measured values from patent US8163921B2, “Hepatitis C virus inhibitors” (Bristol-Myers Squibb Company, priority 2008, dated 2012).
# Target: T1, HCV NS3/4A protease complex, J4L6S strain (Hepatitis C virus genotype 1b, UniProt O92972, C1454S/C1711G)
# T1 construct: DNA encoding the recombinant HCV NS3/4A protease complex (amino acids 1027 to 1711) for these strains; inferred from Ni-NTA purification and the pET21b vector; made in house; host or cells: Escherichia coli BL21 (DE3)
# Assay: FRET peptide assay to monitor HCV NS3/4A proteolytic activity (J4L6S strain)
# Format: biochemical, HCV genotype 1b
# Details: published J4L6S strain
# Excerpt: HCV NS3 protease complexes, derived from the BMS strain, H77 strain or J4L6S strain, were generated, as described below. These purified recombinant proteins were generated for use in a homogeneous assay (see below) to provide an indication of how effective compounds of the present disclosure would be in inhibiting HCV NS3 proteolytic activity.
# Serum from an HCV-infected patient was obtained from Dr. T. Wright, San Francisco Hospital. An engineered full-length cDNA (compliment deoxyribonucleic acid) template of the HCV genome (BMS strain) was constructed from DNA fragments obtained by reverse transcription-PCR (RT-PCR) of serum RNA (ribonucleic acid) and using primers selected on the basis of homology between other genotype 1a strains. From the determination of the entire genome sequence, a genotype 1a was assigned to the HCV isolate according to the classification of Simmonds et al. (See P Simmonds, K A Rose, S Graham, S W Chan, F McOmish, B C Dow, E A Follett, P L Yap and H Marsden, J. Clin. Microbiol., 31(6), 1493-1503 (1993)). […]
# T1 sequence (O92972 1027-1711 C1454S/C1711G, one chain of several): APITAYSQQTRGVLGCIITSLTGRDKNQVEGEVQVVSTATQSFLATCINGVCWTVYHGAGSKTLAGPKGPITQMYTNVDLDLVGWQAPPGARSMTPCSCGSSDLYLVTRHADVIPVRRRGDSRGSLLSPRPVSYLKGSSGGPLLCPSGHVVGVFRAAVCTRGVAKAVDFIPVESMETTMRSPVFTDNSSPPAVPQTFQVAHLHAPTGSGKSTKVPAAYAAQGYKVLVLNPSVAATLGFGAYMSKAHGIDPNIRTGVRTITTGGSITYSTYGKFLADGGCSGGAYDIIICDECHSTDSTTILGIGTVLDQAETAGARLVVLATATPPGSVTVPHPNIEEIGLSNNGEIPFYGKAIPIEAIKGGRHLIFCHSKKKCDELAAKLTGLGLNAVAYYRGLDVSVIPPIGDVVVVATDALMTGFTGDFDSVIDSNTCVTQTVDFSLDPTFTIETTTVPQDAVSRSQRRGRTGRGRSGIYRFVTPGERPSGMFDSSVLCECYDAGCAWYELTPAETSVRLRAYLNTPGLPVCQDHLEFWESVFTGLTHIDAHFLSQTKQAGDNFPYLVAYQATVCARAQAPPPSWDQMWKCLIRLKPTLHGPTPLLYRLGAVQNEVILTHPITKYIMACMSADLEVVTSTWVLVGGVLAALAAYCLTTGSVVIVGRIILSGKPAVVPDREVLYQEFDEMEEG
compound,measurement,value
C=C[C@@H]1C[C@]1(NC(=O)[C@@H]1C[C@@H](Oc2ncc(OC)c3ccc(Cl)cc23)CN1C(=O)[C@@H](Nc1nc(-c2cccc(OC(F)(F)F)c2)cs1)C(C)(C)C)C(=O)NS(=O)(=O)C1CC1 [Example 68],IC50,900 pM
